From ChEMBL document CHEMBL1201862, “PubChem BioAssay data set” (2004)
The source made the active and inactive calls.

Assays:
[1] = target: Disintegrin and metalloproteinase domain-containing protein 17 (Homo sapiens, UniProt P78536); experiment: exosite inhibitors of ADAM17, dose response, biochemical (AID 743260)
[2] = target: Platelet-activating factor acetylhydrolase (Homo sapiens, UniProt Q13093); experiment: Late stage assay provider results from the probe development effort to identify inhibitors of plasma platelet activating factor acetylhydrolase (pPAFAH): fluorescence-based dose response biochemical gel-based competitive Activity-Based Protein Profiling (ABPP) inhibition of human pPAFAH.; assay type: functional, cell-free
Platelet-activating factor acetylhydrolase (Homo sapiens, UniProt Q13093), sequence (Q13093 whole entry): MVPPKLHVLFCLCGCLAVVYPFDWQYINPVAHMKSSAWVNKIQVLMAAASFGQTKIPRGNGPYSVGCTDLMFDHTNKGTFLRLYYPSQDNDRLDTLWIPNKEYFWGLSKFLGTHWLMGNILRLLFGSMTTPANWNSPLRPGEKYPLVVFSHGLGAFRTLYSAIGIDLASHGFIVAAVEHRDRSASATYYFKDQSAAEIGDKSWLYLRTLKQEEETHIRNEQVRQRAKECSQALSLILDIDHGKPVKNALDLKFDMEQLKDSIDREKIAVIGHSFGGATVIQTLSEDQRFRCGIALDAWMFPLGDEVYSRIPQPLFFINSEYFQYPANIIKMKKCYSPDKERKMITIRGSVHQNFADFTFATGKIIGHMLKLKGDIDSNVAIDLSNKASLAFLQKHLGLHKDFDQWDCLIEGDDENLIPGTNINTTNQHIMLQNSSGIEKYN

[3] = target: Platelet-activating factor acetylhydrolase (Mus musculus, UniProt Q60963); experiment: Late stage assay provider results from the probe development effort to identify inhibitors of pPAFAH: fluorescence-based dose-response biochemical gel-based competitive Activity-Based Protein Profiling (ABPP) assay for SAR compounds.; assay type: functional
Platelet-activating factor acetylhydrolase (Mus musculus, UniProt Q60963), sequence (Q60963 whole entry): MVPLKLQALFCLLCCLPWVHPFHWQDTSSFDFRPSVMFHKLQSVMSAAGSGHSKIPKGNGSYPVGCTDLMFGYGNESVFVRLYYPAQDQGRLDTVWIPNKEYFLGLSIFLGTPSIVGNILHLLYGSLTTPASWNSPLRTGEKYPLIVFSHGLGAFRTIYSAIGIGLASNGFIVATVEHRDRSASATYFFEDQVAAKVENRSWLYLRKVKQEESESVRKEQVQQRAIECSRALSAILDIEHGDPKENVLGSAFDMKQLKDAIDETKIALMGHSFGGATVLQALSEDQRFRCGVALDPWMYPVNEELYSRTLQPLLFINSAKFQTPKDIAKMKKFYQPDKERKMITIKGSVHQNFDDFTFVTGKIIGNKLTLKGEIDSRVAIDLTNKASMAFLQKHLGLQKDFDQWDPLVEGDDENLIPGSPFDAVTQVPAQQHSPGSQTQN

[4] = inhibition of ADAM10 peptide cleavage – biochemical, FRET peptide substrate, recombinant human ADAM10, selectivity assay for ADAM17 exosite inhibitor project, dose response (AID 743259);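 further: ADAM10 enzyme cleaving a FRET peptide substrate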
[5] = target: T1, Replicative DNA helicase DnaB (Mycobacterium tuberculosis, UniProt P9WMR3); experiment: DnaB intein splicing inhibitors, dose response, biochemical, cell-free fluorescence (AID 449749); assay type: functional
T1 sequence (P9WMR3 whole entry): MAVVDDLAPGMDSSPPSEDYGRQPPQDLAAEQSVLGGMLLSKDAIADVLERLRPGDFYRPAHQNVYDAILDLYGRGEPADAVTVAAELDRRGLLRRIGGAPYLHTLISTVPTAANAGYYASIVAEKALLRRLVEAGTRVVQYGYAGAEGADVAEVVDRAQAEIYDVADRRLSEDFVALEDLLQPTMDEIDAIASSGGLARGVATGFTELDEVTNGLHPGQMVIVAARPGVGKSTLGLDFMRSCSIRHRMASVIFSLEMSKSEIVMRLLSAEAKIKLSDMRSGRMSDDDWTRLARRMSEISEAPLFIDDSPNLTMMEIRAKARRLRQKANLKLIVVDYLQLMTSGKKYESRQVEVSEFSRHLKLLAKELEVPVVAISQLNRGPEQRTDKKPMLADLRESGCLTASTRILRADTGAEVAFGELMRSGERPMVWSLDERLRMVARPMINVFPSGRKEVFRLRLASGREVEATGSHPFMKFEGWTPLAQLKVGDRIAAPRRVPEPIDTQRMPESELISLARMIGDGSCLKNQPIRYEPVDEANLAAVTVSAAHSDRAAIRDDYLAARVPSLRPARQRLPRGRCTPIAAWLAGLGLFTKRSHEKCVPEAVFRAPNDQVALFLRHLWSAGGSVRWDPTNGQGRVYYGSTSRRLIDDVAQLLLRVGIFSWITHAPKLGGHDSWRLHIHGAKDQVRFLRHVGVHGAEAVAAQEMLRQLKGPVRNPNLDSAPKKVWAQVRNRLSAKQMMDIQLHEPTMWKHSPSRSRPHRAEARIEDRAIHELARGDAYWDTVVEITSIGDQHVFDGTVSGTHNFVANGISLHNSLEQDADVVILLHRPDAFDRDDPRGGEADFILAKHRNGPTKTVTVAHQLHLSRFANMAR

Protein RecA = target: T2, Protein RecA (Mycobacterium tuberculosis, UniProt P9WHJ3); experiment: Fluorescence Cell-Free Homogeneous Dose Retest to Identify Inhibitors of RecA-Intein Splicing Activity. [Related pubchem assays (depositor defined):AID2097, AID2223, AID489010, AID492950]; assay type: functional
T2 sequence (P9WHJ3 whole entry): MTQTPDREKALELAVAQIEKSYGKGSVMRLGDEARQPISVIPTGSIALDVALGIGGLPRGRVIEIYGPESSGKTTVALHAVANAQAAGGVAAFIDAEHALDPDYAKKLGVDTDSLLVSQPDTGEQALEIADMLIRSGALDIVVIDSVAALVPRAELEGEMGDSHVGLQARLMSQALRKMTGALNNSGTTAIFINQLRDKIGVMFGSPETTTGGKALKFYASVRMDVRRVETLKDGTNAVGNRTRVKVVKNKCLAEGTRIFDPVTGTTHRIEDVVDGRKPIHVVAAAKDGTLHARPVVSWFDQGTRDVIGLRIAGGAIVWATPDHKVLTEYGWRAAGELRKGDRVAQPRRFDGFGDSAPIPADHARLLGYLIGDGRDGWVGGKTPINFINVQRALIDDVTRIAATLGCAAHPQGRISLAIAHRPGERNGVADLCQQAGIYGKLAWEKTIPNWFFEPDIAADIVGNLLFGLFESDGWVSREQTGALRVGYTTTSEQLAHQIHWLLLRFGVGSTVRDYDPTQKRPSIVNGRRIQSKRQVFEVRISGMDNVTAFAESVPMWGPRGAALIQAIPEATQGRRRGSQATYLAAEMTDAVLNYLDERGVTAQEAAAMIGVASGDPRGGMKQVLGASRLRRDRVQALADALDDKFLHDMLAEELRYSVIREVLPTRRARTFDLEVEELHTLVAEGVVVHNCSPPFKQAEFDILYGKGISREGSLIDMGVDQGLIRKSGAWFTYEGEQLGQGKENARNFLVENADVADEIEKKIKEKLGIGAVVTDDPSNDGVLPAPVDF

[6] = target: Mitochondrial peptide methionine sulfoxide reductase (Bos taurus, UniProt P54149); experiment: Absorbance-based biochemical high throughput dose response assay for activators of Methionine sulfoxide reductase A (MsrA).; assay type: functional
Mitochondrial peptide methionine sulfoxide reductase, sequence (P54149 whole entry): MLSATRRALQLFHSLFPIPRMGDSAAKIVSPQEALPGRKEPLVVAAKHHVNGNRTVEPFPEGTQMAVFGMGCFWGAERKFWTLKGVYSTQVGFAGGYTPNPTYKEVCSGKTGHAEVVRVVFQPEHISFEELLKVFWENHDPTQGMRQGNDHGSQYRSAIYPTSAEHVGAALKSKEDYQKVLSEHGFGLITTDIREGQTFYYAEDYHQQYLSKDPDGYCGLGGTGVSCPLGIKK

[7] = target: Histone-lysine N-methyltransferase NSD2 (Homo sapiens, UniProt O96028); assay type: biochemical
Histone-lysine N-methyltransferase NSD2, sequence (O96028 whole entry): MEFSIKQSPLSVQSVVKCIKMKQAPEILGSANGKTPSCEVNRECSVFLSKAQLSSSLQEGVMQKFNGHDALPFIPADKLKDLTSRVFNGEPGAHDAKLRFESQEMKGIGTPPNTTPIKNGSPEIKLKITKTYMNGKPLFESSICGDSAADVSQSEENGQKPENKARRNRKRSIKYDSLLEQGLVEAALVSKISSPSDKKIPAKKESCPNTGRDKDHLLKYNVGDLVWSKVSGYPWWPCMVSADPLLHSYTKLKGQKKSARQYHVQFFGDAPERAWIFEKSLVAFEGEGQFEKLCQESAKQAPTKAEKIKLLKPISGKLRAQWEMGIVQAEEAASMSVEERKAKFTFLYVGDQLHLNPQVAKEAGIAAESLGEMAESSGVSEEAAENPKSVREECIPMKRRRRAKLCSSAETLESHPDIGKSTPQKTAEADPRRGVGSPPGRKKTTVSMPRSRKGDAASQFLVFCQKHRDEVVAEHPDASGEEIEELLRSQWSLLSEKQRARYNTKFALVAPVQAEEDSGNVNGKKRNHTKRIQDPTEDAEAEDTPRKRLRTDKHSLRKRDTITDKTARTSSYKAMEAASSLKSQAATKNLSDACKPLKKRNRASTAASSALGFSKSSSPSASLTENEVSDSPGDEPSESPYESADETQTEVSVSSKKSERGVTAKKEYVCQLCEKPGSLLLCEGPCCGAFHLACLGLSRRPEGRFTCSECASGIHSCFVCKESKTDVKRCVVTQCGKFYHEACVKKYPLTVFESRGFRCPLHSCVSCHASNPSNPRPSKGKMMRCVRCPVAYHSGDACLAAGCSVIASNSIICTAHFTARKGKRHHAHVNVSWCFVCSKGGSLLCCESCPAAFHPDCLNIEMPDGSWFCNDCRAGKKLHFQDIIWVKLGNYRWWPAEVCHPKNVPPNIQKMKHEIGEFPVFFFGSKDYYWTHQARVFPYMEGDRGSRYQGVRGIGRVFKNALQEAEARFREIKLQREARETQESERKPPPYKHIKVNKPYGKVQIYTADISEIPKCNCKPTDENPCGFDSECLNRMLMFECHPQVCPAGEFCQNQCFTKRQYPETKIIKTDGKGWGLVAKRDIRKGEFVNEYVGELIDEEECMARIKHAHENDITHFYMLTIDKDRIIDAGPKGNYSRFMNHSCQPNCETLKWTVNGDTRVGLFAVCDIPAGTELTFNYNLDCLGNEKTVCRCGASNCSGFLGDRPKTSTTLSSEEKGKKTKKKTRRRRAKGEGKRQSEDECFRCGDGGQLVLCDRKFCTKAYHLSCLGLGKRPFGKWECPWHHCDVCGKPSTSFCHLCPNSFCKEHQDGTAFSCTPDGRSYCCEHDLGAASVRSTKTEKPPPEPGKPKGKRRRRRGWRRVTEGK

[8] = bead-based luminescence quenchers, dual-tagged ARNT – biochemical, AlphaScreen, cherry-pick, artefact control for ARNT-TACC3 interaction inhibitor project, dose response (AID 651705); assay type: functional;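 further: AlphaScreen bead proximity signal that flags compounds interfering with the detection technology; potency reflects signal decrease which marks the compound as an assay artifact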
Hexokinase HKDC1 = target: T3, Hexokinase HKDC1 (Homo sapiens, UniProt Q2TB90); experiment: inhibition of HKDC1 glucose phosphorylation – biochemical, W721R variant, dose response (AID 504729); assay type: functional
T3 sequence (Q2TB90 whole entry): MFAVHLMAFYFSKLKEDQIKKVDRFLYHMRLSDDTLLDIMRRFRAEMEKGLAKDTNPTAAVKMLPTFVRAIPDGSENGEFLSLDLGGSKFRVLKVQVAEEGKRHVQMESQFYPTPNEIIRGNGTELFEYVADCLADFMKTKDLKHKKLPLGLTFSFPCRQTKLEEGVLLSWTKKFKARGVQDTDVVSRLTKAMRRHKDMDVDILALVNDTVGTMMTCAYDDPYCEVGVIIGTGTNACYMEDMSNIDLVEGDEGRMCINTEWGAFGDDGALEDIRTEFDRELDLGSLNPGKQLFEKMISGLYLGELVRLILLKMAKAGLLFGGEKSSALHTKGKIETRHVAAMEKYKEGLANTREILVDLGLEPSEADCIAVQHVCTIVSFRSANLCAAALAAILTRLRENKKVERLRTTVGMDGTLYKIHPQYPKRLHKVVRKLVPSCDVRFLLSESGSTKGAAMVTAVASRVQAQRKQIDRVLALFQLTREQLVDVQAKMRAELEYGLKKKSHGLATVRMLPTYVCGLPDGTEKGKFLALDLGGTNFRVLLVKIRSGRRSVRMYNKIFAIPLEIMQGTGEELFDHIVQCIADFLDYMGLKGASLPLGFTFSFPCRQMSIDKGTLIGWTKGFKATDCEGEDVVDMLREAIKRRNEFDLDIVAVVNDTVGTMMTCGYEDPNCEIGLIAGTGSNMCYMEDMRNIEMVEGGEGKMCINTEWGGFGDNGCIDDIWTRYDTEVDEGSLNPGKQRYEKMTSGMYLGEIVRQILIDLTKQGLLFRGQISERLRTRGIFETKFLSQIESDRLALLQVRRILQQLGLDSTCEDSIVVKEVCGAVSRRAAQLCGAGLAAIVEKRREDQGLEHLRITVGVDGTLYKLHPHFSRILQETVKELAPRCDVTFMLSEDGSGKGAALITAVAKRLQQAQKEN

Interleukin-8 [9] = target: T4, Interleukin-8 (Homo sapiens, UniProt P10145); experiment: Dose Response confirmation of uHTS small molecule hits for cystic fibrosis induced NFkb Inhibitors in a PAF-induced IL8 counterscreen.; assay type: functional; conditions: read-out: IC50_Mean
T4 sequence (P10145 whole entry): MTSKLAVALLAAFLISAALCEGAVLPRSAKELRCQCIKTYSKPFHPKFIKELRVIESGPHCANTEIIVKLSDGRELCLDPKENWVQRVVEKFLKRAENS

[10] = reduction of Shn3 3'UTR-driven luciferase in osteoblasts – cell-based, Clone20 osteoblasts, firefly luciferase, cherry-picked, dose response (AID 624132); assay type: functional;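 further: firefly luciferase luminescence from reporter carrying the Shn3 3'UTR in osteoblasts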
[11] = loss of viability in HepG2 cells – cell-based, CellTiter-Glo, cherry-picked, cytotoxicity control for Shn3 inhibitor project, dose response (AID 624134); assay type: functional
[12] = target: T5, Microphthalmia-associated transcription factor (Homo sapiens, UniProt O75030); experiment: reducers of TRPM1 reporter luminescence, concentration series – cell-based, SK-MEL-5, cherry-picked, set 3, MITF inhibitor project, dose response (AID 493073); assay type: functional;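 further: SK-MEL-5 melanoma cells with luciferase driven by the MITF target TRPM1 promoter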
T5 sequence (O75030 whole entry): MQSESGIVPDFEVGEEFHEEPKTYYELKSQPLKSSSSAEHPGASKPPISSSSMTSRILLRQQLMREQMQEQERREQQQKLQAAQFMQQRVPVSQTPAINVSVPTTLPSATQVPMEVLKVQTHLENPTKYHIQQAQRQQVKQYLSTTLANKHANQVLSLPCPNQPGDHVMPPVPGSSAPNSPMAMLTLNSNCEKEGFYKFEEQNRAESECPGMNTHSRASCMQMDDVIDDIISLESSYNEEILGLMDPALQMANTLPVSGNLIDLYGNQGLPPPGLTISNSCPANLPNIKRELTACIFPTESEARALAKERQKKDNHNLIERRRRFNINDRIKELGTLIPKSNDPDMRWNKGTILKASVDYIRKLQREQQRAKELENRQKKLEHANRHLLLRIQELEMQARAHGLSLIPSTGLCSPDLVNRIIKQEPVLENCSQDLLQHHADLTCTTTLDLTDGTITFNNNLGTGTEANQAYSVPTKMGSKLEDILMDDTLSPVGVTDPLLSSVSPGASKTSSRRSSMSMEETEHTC

[13] = HEK-293T cell viability reduction – luminescence, B-cell screen hits, cytotoxicity control for BCR NF-kB inhibitor project, dose response (AID 489021); assay type: functional, cell-based;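 further: HEK-293T cells carrying an NF-kB luciferase reporter; cells exposed to compound for about 14 hours before viability readout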
[14] = non-specific 3'UTR reporter inhibition in Clone20-Shn3RL – cell-based, Renilla luciferase, cherry-picked, counter-screen for Shn3 inhibitor project, dose response (AID 624133); assay type: functional
Interleukin-8 [15] = target: T4, Interleukin-8; experiment: Dose Response confirmation of uHTS small molecule hits for cystic fibrosis induced NFkb Inhibitors in a TNFa-induced IL8 counterscreen.; assay type: functional; conditions: read-out: IC50_Mean

Disintegrin and metalloproteinase domain-containing protein 17, sequence (P78536 whole entry, the tested form may be a part): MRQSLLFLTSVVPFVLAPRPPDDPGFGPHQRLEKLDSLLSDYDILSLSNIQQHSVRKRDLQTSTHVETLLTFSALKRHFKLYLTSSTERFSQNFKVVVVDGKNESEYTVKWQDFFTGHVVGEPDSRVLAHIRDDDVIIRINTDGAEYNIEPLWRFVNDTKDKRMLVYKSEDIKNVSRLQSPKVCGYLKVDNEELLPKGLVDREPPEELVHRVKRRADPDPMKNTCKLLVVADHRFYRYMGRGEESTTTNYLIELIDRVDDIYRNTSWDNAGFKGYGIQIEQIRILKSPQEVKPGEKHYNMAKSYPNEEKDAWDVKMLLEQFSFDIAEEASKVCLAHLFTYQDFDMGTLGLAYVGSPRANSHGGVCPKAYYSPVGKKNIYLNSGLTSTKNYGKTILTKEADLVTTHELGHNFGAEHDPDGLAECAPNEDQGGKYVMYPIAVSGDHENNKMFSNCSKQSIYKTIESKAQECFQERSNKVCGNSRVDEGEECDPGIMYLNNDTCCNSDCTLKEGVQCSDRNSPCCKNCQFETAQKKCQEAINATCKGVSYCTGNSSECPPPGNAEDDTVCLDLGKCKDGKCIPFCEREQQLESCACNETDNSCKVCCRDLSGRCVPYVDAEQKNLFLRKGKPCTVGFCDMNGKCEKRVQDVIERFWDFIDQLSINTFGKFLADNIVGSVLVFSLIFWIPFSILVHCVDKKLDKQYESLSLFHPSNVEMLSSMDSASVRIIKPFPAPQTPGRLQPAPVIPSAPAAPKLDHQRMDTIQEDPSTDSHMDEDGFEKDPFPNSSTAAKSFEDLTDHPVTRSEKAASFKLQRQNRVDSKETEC

Structure (SMILES): Cc1cc(N2CCN(C(=O)Oc3ccc(-c4ccccc4)cn3)CC2)c2ccccc2n1
- IC50 [1]: > 69.4 µM (inactive)
- IC50 [2]: 0.006 µM (active)
- IC50 [3]: 0.031 µM (active)
- IC50 [4]: > 69.4 µM (inactive)

Structure (SMILES): O=C1c2ccccc2C(=O)c2cc(S(=O)(=O)Nc3ccccc3)ccc21
- AC50 [5]: 29.8 µM (active)
- EC50 (Protein RecA): 12.1 µM (active)
- EC50 [6]: > 104 µM (inactive)

Structure (SMILES): NC1=CC(=O)C(=O)c2ccccc21 [4-AMINO-[1,2]NAPHTHOQUINONE]
- AC50 [7]: 1.74 µM (active)
- AC50 [8]: 107 µM (active)
- IC50 (Hexokinase HKDC1): 34 µM (inactive)

Structure (SMILES): CC(C)(C)C(=O)/C(=C/c1ccncc1)n1cncn1
- IC50 (Interleukin-8 [9]): 0.607 µM (active)
- AC50 [10]: 3.27 µM (active)
- AC50 [11]: 16.8 µM (active)
- AC50 [12]: 6.63 µM (active)
- IC50 [13]: > 80 µM (inactive)
- AC50 [14]: 7.23 µM (active)
- IC50 (Interleukin-8 [15]): 1.25 µM (active)
